System: 885724-159-R-J1-PDC complex spheroid viability
Assay: Anticancer human tumor 885724-159-R-J1-PDC patient-derived pancreatic adenocarcinoma cell line growth inhibition [GQUAD]
Conditions: for IC50: curve of first compound; for viability, T/C: stronger effect = lower value
In short: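 Viability of tumor cells grown as complex spheroids with endothelial and stromal cells, exposed to drug combinations. Top concentration at or near clinical Cmax (else 10 microM), diluted in half-log increments.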

[1] = second compound 0.0316 µM, first compound 0.0316 µM
[2] = second compound 0.0316 µM, first compound 0.1 µM
[3] = second compound 0.0316 µM, first compound 0.316 µM
[4] = second compound 0.0316 µM, first compound 1 µM
[5] = second compound 0.0316 µM, first compound 3.16 µM
[6] = second compound 0.0316 µM, first compound 10 µM
[7] = second compound 0.1 µM, first compound 0.0316 µM
[8] = second compound 0.1 µM, first compound 0.1 µM
[9] = second compound 0.1 µM, first compound 0.316 µM
[10] = second compound 0.1 µM, first compound 1 µM
[11] = second compound 0.1 µM, first compound 3.16 µM
[12] = second compound 0.1 µM, first compound 10 µM
[13] = second compound 0.316 µM, first compound 0.0316 µM
[14] = second compound 0.316 µM, first compound 0.1 µM
[15] = second compound 0.316 µM, first compound 0.316 µM
[16] = second compound 0.316 µM, first compound 1 µM
[17] = second compound 0.316 µM, first compound 3.16 µM
[18] = second compound 0.316 µM, first compound 10 µM
[19] = second compound 1 µM, first compound 0.0316 µM
[20] = second compound 1 µM, first compound 0.1 µM
[21] = second compound 1 µM, first compound 0.316 µM
[22] = second compound 1 µM, first compound 1 µM
[23] = second compound 1 µM, first compound 3.16 µM
[24] = second compound 1 µM, first compound 10 µM
[25] = second compound 3.16 µM, first compound 0.0316 µM
[26] = second compound 3.16 µM, first compound 0.1 µM
[27] = second compound 3.16 µM, first compound 0.316 µM
[28] = second compound 3.16 µM, first compound 1 µM
[29] = second compound 3.16 µM, first compound 3.16 µM
[30] = second compound 3.16 µM, first compound 10 µM
[31] = second compound 10 µM, first compound 0.0316 µM
[32] = second compound 10 µM, first compound 0.1 µM
[33] = second compound 10 µM, first compound 0.316 µM
[34] = second compound 10 µM, first compound 1 µM
[35] = second compound 10 µM, first compound 3.16 µM
[36] = second compound 10 µM, first compound 10 µM
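Also: spheroids exposed to agents for seven days before readout.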
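For viability, T/C in this document: percent of vehicle control viability where 100% = DMSO wells.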

For CCCS(=O)(=O)Nc1ccc(F)c(C(=O)c2c[nH]c3ncc(-c4ccc(Cl)cc4)cc23)c1F + Cc1cnc(CNC(=O)c2c(=O)c3ccc(N4CCCN(C)CC4)nc3n3c2sc2ccccc23)cn1, the IC50 (second compound 0.0316 µM) was over 10 µM, the IC50 (second compound 0.1 µM) was over 10 µM and the IC50 (second compound 0.316 µM) was over 10 µM. It also gave an IC50 (second compound 1 µM) of over 10 µM, an IC50 (second compound 3.16 µM) of over 10 µM and an IC50 (second compound 10 µM) of over 10 µM. The viability, T/C [1] was 95%, the viability, T/C [2] was 106% and the viability, T/C [3] was 113%. For the same compound, the viability, T/C [4] was 141%, the viability, T/C [5] was 126% and the viability, T/C [6] was 74%. The viability, T/C [7] was 124%, the viability, T/C [8] was 128% and the viability, T/C [9] was 116%. For the same compound, the viability, T/C [10] was 135%, the viability, T/C [11] was 128% and the viability, T/C [12] was 83%. For the same compound, the viability, T/C [13] was 94%, the viability, T/C [14] was 103% and the viability, T/C [15] was 96.3%. For the same compound, the viability, T/C [16] was 98%, the viability, T/C [17] was 102% and the viability, T/C [18] was 72.2%. It also gave a viability, T/C [19] of 97.6%, a viability, T/C [20] of 84.6% and a viability, T/C [21] of 96%. For the same compound, the viability, T/C [22] was 96.7%, the viability, T/C [23] was 115% and the viability, T/C [24] was 70.6%. It also gave a viability, T/C [25] of 76.7%, a viability, T/C [26] of 75.2% and a viability, T/C [27] of 78.8%. The viability, T/C [28] was 80.3%, the viability, T/C [29] was 91.6% and the viability, T/C [30] was 58.7%. It also gave a viability, T/C [31] of 62.8%, a viability, T/C [32] of 71.2% and a viability, T/C [33] of 61.1%. For the same compound, the viability, T/C [34] was 73.4%, the viability, T/C [35] was 76% and the viability, T/C [36] was 50.2%.

Cn1ncnc1[C@H]1c2n[nH]c(=O)c3cc(F)cc(c23)N[C@@H]1c1ccc(F)cc1 + CN(C)c1ccc(Nc2c3ccc(NC(=O)CCN4CCCC4)cc3nc3cc(NC(=O)CCN4CCCC4)ccc23)cc1 was tested, and the IC50 (second compound 0.0316 µM) was over 0.316 µM, the IC50 (second compound 0.1 µM) was over 0.316 µM and the IC50 (second compound 0.316 µM) was over 0.316 µM. For the same compound, the IC50 (second compound 1 µM) was over 0.316 µM, the IC50 (second compound 3.16 µM) was over 0.316 µM and the IC50 (second compound 10 µM) was over 0.316 µM. For the same compound, the viability, T/C (second compound 0.0316 µM, first compound 0.000999 µM) was 99%, the viability, T/C (second compound 0.0316 µM, first compound 0.00316 µM) was 96.7% and the viability, T/C (second compound 0.0316 µM, first compound 0.00999 µM) was 98.9%. The viability, T/C [1] was 107%, the viability, T/C (second compound 0.0316 µM, first compound 0.0999 µM) was 78.5% and the viability, T/C [3] was 84.9%. The viability, T/C (second compound 0.1 µM, first compound 0.000999 µM) was 101%, the viability, T/C (second compound 0.1 µM, first compound 0.00316 µM) was 112% and the viability, T/C (second compound 0.1 µM, first compound 0.00999 µM) was 112%. The viability, T/C [7] was 93.1%, the viability, T/C (second compound 0.1 µM, first compound 0.0999 µM) was 96% and the viability, T/C [9] was 88.3%. It also gave a viability, T/C (second compound 0.316 µM, first compound 0.000999 µM) of 103%, a viability, T/C (second compound 0.316 µM, first compound 0.00316 µM) of 96.2% and a viability, T/C (second compound 0.316 µM, first compound 0.00999 µM) of 97.3%. The viability, T/C [13] was 86%, the viability, T/C (second compound 0.316 µM, first compound 0.0999 µM) was 97.2% and the viability, T/C [15] was 82.1%. The viability, T/C (second compound 1 µM, first compound 0.000999 µM) was 101%, the viability, T/C (second compound 1 µM, first compound 0.00316 µM) was 75.7% and the viability, T/C (second compound 1 µM, first compound 0.00999 µM) was 85.8%. It also gave a viability, T/C [19] of 73.4%, a viability, T/C (second compound 1 µM, first compound 0.0999 µM) of 76.7% and a viability, T/C [21] of 76.2%. For the same compound, the viability, T/C (second compound 3.16 µM, first compound 0.000999 µM) was 86.4%, the viability, T/C (second compound 3.16 µM, first compound 0.00316 µM) was 79% and the viability, T/C (second compound 3.16 µM, first compound 0.00999 µM) was 76%. For the same compound, the viability, T/C [25] was 76.5%, the viability, T/C (second compound 3.16 µM, first compound 0.0999 µM) was 81.6% and the viability, T/C [27] was 75.6%. It also gave a viability, T/C (second compound 10 µM, first compound 0.000999 µM) of 67.3%, a viability, T/C (second compound 10 µM, first compound 0.00316 µM) of 85.9% and a viability, T/C (second compound 10 µM, first compound 0.00999 µM) of 78%. The viability, T/C [31] was 74.2%, the viability, T/C (second compound 10 µM, first compound 0.0999 µM) was 75.8% and the viability, T/C [33] was 77%.

For CC(C)n1c(=O)n(C)c2cnc3cc(F)c(-c4ccc(OCCCN5CCCCC5)nc4)cc3c21 + Cc1[nH]c2ccc(F)cc2c1-c1nc2c3cccnc3c3ncccc3c2[nH]1, the IC50 (second compound 0.0316 µM) was over 10 µM, the IC50 (second compound 0.1 µM) was over 10 µM and the IC50 (second compound 0.316 µM) was over 10 µM. The IC50 (second compound 1 µM) was over 10 µM, the IC50 (second compound 3.16 µM) was 0.133 µM and the IC50 (second compound 10 µM) was over 10 µM. The viability, T/C [1] was 107%, the viability, T/C [2] was 95.2% and the viability, T/C [3] was 98.2%. It also gave a viability, T/C [4] of 92.9%, a viability, T/C [5] of 84.6% and a viability, T/C [6] of 83.2%. It also gave a viability, T/C [7] of 100%, a viability, T/C [8] of 99.2% and a viability, T/C [9] of 100%. It also gave a viability, T/C [10] of 91.3%, a viability, T/C [11] of 94.5% and a viability, T/C [12] of 78.9%. It also gave a viability, T/C [13] of 93.4%, a viability, T/C [14] of 102% and a viability, T/C [15] of 92.5%. For the same compound, the viability, T/C [16] was 79.8%, the viability, T/C [17] was 81.6% and the viability, T/C [18] was 74.2%. For the same compound, the viability, T/C [19] was 74.3%, the viability, T/C [20] was 69.2% and the viability, T/C [21] was 75%. The viability, T/C [22] was 70%, the viability, T/C [23] was 68.3% and the viability, T/C [24] was 59.5%. For the same compound, the viability, T/C [25] was 54.7%, the viability, T/C [26] was 43.4% and the viability, T/C [27] was 53.8%. It also gave a viability, T/C [28] of 42.9%, a viability, T/C [29] of 38.5% and a viability, T/C [30] of 25.3%. The viability, T/C [31] was 69.9%, the viability, T/C [32] was 71.6% and the viability, T/C [33] was 79.8%. For the same compound, the viability, T/C [34] was 76.1%, the viability, T/C [35] was 72.4% and the viability, T/C [36] was 63.2%.
